Experiments:
Assay type in all cases: ADME
Cytochrome P450 1A2 = molecular target: T1, Cytochrome P450 1A2 (Homo sapiens, UniProt P05177); experiment: Inhibition of human CYP1A2
T1 sequence (P05177 whole entry): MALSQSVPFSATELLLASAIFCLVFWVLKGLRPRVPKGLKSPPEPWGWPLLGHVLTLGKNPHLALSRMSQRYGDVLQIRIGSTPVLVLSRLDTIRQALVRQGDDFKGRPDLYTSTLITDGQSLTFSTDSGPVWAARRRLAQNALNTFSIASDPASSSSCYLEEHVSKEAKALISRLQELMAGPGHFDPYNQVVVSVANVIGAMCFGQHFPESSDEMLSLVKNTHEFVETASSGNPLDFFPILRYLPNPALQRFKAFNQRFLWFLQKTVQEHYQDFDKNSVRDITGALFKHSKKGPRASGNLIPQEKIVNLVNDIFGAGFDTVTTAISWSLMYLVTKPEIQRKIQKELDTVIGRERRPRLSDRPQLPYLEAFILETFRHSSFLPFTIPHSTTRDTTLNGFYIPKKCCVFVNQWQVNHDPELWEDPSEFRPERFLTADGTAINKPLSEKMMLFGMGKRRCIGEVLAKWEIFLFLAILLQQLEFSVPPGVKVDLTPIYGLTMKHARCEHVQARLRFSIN

Cytochrome P450 3A4 = Cytochrome P450 3A4 (Homo sapiens, UniProt P08684); experiment: Inhibition of human CYP3A4
Cytochrome P450 2D6 = Cytochrome P450 2D6 (Homo sapiens, UniProt P10635); experiment: Inhibition of human CYP2D6
Cytochrome P450 2C9 = Cytochrome P450 2C9 (Homo sapiens, UniProt P11712); experiment: Inhibition of human CYP2C9
Sequence of Cytochrome P450 2C9 (P11712 whole entry): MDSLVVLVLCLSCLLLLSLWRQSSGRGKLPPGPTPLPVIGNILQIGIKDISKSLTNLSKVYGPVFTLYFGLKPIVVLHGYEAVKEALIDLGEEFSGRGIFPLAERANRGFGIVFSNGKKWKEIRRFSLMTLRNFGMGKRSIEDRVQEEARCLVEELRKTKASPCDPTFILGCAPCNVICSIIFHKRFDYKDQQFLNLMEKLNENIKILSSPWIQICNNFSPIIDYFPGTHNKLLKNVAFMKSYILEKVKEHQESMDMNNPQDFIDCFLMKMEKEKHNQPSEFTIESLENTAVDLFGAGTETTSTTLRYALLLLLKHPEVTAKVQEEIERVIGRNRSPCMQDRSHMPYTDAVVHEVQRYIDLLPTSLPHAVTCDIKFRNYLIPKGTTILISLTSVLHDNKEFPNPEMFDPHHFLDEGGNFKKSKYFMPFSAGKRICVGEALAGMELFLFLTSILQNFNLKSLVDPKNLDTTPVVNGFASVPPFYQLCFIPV

Sequence of Cytochrome P450 3A4 (P08684 whole entry): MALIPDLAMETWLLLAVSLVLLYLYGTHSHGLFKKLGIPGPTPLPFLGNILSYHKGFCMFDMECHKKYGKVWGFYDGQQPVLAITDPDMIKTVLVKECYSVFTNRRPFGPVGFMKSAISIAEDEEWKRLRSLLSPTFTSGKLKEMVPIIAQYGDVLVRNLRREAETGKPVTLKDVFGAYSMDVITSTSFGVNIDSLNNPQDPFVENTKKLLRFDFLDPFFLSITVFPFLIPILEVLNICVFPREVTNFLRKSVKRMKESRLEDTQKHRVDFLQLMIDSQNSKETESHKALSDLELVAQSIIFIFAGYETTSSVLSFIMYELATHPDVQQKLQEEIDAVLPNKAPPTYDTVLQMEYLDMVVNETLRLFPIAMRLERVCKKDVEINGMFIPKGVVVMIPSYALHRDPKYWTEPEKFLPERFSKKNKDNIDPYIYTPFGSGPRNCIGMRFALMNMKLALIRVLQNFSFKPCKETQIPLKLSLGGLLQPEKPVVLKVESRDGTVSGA
Sequence of Cytochrome P450 2D6 (P10635 whole entry): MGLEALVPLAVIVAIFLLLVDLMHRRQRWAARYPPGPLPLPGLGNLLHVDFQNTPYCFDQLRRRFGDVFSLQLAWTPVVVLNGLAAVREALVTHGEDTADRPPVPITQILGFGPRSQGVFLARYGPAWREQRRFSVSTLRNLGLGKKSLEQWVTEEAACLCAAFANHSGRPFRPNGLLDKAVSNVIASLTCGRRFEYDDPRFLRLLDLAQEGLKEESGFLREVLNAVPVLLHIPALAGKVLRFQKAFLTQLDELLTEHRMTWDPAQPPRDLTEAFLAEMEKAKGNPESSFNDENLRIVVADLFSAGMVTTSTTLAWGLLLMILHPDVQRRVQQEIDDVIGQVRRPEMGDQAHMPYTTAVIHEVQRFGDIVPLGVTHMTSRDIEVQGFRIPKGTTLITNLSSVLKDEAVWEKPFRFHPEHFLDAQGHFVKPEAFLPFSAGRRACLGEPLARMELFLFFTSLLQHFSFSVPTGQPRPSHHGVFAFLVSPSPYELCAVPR

Row | IC50 (Cytochrome P450 1A2) [µM] | IC50 (Cytochrome P450 3A4) [µM] | IC50 (Cytochrome P450 2D6) [µM] | IC50 (Cytochrome P450 2C9) [µM] | Structure (SMILES)
1 | 0.24 |  |  |  | O=c1cc(-c2ccccc2)oc2cc(O)ccc12 [7-HYDROXYFLAVONE]
2 |  | > 50 | > 50 | 5.23 | O=c1cc(-c2ccccc2)oc2cc(O)cc(O)c12 [CHRYSIN]

Reference: ChEMBL document CHEMBL1255203 (Bioorg Med Chem Lett, 2010)
